Source: patent US11229628B2, “TRPA1 and TRPV4 inhibitors and methods of using the same for organ-specific inflammation and itch” (Duke University, priority 2015, dated 2022)

Key:
TRPV4 = TRPV4 (Homo sapiens, UniProt Q9HBA0); experiment: TRPV4-mediated calcium influx in N2a cells with targeted expression of human TRPV4 (Ca2+ imaging, activation with 10 nM GSK101); format: cell-based; set-up: expressed in transfected cells; host or cells: N2a cells; conditions: 2.5 μM inhibitor, pre-incubation 10 min
Experimental: Compounds (GSK205, 16-12, 16-13, 16-14, 16-18, 16-8, and 16-8/18hy) were tested for their effect on TRPV4-mediated calcium influx in N2a cultured cells with targeted expression of human TRPV4. Ca2+ imaging was performed according to Li et al. (Environ. Health Perspect. 2011, 119, 784-93) and Moore et al. (Proc. Natl. Acad. Sci. U.S.A. 2013, 110, E3225-E3234). Briefly, Ca2+ imaging of primary mouse epidermal keratinocytes (1° MK) in response to chemical activation of TRPV4 was conducted after loading with 2 μM fura2-AM, following a ratiometric Ca2+-imaging protocol with 340/380 nm blue light for dual excitation. Ratios of emissions were acquired at 0.5 Hz. ΔR/R0 was determined as the fraction of the increase of a given ratio over baseline ratio, divided by baseline ratio. For stimulation of cells with UVB, where fura-2 was not suitable because of the proximity of stimulation with 340/380 nm vs. 295 nm, 2 μM fluo4-AM was used instead. Ca2+ imaging was carried out at 488 nm excitation, acquisition of emissions at 0.5 Hz, expressed as ΔF/F0. TRPV4 was activated with 10 nM GSK101, a specific activator, which had no effect on RFP-transfected cells. Each of the […] compounds were added to a concentration of 2.5 μM, and its effect was observed.
The ordinate is the peak calcium concentration in the cells (average n>75 cells) in nM.

mice = experiment: UVB-overexposure evoked nocifensive behavior (sunburn model), topical treatment; format: in vivo, mouse; conditions: 0.5 mM in 40 μL
Experimental: Compounds were tested for their effect on nocifensive behavior (response to pain) following UVB overexposure. Behavioral tests were performed to evaluate the decrease in withdrawal thresholds in response to mechanical von Frey hair or thermal stimuli applied to hind paws. The Von-Frey apparatus (Ugo Basile) applied a mechanical stimulus with a flexible steel wire from underneath the hind paw. The force leading to withdrawal was determined. For the thermal stimuli test, paws were stimulated with heat from underneath applied by an infrared beam (Hargreave's test apparatus; Ugo Basile), and withdrawal latencies were recorded. The withdrawal thresholds were ascertained before and after UV exposure. Mice were exposed to UVB 3-5 days after the last application of tam/oil, using a Bio-Rad Gel Doc 2000 UV transilluminator (302 nm) for 5 min with an exposure of 600 mJ/cm^2. This represents 5-10 times the minimal erythema-inducing dose, in keeping with the rationale of inducing sunburn and studying sunburn-evoked pain.

BL6 mice = experiment: Formalin-evoked nocifensive behavior, whiskerpad injection pain model in mice; format: in vivo, mouse; conditions: for formalin-evoked nocifensive behavior, time course / formalin-evoked nocifensive behavior at the 45-min time-point: 0.5 mM/10 μL whiskerpad; for formalin-evoked nocifensive behavior, quantitation (in particular second phase): pre-injected into whiskerpad at 0.5 mM/10 μL, 15 min before formalin
Experimental: Compounds were tested for their effect in reducing pain using an in vivo pain model in mice. For mouse formalin-evoked irritant behavior measurements, mice were well-fed, well-rested, and tested at the same time of day, at the same time-point of their circadian rhythm. They were allowed to acclimate to a plexiglas chamber for at least 30 min before testing, and received 10 μL subcutaneous injection of 4% of formalin (diluted from an aqueous solution of commercial 37% formaldehyde with normal saline (NS)) through a 30-gauge needle into the right whiskerpad, as further detailed in Luccarini et al. (J. Pain, 2006, 7, 908-914). Normal saline was used as control injection. After injection, mice were immediately placed back into the chamber and the rubbing behavior was recorded by a private consumer-type video-camera for a 45 min observation period. The recording time was divided into 9 blocks of 5 min, and a nociceptive score was determined per block by measuring the time that the animals spent rubbing the injected area predominantly with the ipsilateral fore-paw and rarely with hind-paw. This rubbing behavior with fore-paw is evoked by pain, which is distinct from itch behavior. Behavioral analysis was conducted by observers blinded to treatment.
To investigate the effects of the specific compounds GSK205, 16-8, and 16-8/18hy on formalin-induced nociceptive behavior, mice received a single subcutaneous injection of the compounds into the whiskerpad (10 μL, dissolved in 4% DMSO) 15 min before formalin injection. Control animals received the same volume of NS, 4% DMSO.
Note the biphasic response and “clean” controls. […] This concentration had no effect on residual nocifensive behavior in Trpv4−/− mice. […] Also note that none of the compounds influenced the first phase, which was caused by the direct irritation that formalin causes on peripheral whisker-pad nerve endings.

human TRPA1 = target: T1, human TRPA1 (Homo sapiens, UniProt O75762); experiment: Ca2+ transient in N2a cells transfected with human TRPA1, evoked by AITC; format: cell-based; conditions: for inhibitory activity against human TRPA1: 5 μM compound
T1 construct: expressed in transfected cells; host or cells: N2a cells
Experimental: Compounds were tested for their effect on TRPA1. N2a permanent cells were transfected with human TRPA1 cDNA, using a pcDNA3.1 expression plasmid. They were co-transfected with eGFP-expressing plasmid, or, for control, with eGFP plasmid only.
Cells were then pre-exposed to 5 μM of compounds 16-8 and 16-8/18hy for 10 min.
Averaged Ca2+ signal is shown from >75 cells. The resulting Ca2+ transient evoked by 60 μM AITC was reduced by >80% upon administration of compound 16-8 or 16-8/18hy at 5 μM, indicating appreciable TRPA1-inhibitory effects of both compounds.

Chain of TRPV4 (Q9HBA0 whole entry): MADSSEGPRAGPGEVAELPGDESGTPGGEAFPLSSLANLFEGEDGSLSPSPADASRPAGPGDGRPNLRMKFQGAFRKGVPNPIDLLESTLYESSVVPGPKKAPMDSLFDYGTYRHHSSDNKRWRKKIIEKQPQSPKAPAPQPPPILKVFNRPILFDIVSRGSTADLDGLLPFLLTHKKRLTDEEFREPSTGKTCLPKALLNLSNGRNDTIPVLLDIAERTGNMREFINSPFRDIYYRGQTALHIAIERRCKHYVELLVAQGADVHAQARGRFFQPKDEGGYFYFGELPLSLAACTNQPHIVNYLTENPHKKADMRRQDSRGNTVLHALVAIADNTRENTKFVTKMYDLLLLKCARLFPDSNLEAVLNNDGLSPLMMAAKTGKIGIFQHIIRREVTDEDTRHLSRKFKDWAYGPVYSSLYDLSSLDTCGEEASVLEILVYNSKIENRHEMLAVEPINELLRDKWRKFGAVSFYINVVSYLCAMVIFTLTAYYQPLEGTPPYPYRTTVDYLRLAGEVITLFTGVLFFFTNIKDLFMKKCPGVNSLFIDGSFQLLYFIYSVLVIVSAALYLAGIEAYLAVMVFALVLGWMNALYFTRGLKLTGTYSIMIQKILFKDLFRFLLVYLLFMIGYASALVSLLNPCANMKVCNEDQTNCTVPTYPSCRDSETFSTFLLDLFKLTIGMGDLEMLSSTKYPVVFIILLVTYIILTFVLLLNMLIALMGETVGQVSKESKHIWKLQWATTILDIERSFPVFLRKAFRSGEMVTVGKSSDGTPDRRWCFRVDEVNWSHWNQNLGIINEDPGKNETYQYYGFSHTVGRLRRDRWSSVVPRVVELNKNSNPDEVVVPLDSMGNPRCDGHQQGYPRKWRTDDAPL
T1 sequence (O75762 whole entry): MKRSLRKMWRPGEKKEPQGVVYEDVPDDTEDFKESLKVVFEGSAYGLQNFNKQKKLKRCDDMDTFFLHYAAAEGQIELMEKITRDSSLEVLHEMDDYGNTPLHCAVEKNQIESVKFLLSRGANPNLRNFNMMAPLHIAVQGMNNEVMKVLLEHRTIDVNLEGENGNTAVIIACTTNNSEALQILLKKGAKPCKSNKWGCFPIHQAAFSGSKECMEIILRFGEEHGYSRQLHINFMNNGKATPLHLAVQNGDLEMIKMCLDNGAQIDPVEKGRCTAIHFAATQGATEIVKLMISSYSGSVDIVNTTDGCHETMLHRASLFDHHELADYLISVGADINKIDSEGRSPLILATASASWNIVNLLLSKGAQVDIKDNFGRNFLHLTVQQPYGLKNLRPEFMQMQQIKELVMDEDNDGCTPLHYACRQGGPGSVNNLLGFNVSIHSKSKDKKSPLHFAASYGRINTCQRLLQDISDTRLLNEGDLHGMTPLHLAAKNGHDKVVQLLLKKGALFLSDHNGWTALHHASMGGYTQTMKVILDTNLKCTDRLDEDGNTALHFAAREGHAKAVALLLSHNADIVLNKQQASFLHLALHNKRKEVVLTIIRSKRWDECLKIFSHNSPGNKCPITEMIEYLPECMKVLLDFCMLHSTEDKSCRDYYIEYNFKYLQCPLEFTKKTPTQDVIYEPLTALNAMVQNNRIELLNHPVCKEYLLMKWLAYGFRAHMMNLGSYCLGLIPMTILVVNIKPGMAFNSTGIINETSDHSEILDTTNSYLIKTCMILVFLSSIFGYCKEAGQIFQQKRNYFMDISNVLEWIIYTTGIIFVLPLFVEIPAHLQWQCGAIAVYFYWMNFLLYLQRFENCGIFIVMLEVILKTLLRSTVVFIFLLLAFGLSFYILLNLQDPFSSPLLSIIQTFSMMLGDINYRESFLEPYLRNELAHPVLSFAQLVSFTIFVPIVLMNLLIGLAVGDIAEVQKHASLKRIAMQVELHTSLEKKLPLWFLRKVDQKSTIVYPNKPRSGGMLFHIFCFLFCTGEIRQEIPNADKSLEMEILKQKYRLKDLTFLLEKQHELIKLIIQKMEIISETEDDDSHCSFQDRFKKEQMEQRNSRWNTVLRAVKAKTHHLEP

## CN(CCc1ccc(Nc2nc(-c3cccnc3)cs2)cc1)Cc1ccccc1 [GSK205]
TRPV4
  inhibition of TRPV4-mediated calcium influx (peak calcium concentration in the cells): very low potency
mice
  UVB-overexposure evoked nocifensive behavior (response to pain): as effective as vehicle
BL6 mice
  formalin-evoked nocifensive behavior, time course: not different from control
  formalin-evoked nocifensive behavior, quantitation (in particular second phase): lack of effect
Human TRPA1; doses below or equaling 25 μM
  inhibition of TRPA1 activity: did not inhibit TRPA1 activity

## CCN(CCc1ccc(Nc2nc(-c3ccccc3)cs2)cc1)Cc1ccccc1 [16-8/18hy]
TRPV4
  inhibition of TRPV4-mediated calcium influx (peak calcium concentration in the cells): did not show enhanced inhibition over 16-8
BL6 mice
  formalin-evoked nocifensive behavior at the 45-min time-point: reversal to control levels
  formalin-evoked nocifensive behavior, time course: significantly attenuated nocifensive behavior
  formalin-evoked nocifensive behavior, quantitation (in particular second phase): significant attenuation of nocifensive behavior
Human TRPA1
  inhibitory activity against human TRPA1: showed inhibitory activity

## CN(CCc1ccc(Nc2nc(-c3ccccc3)cs2)cc1)Cc1ccccc1 [Compound 16-8]
TRPV4
  inhibition of TRPV4-mediated calcium influx (peak calcium concentration in the cells): most potent
mice
  UVB-overexposure evoked nocifensive behavior (response to pain): especially effective in reducing the response to pain
BL6 mice
  formalin-evoked nocifensive behavior at the 45-min time-point: reduction to control levels
  formalin-evoked nocifensive behavior, time course: significantly attenuated nocifensive behavior
  formalin-evoked nocifensive behavior, quantitation (in particular second phase): significant attenuation of nocifensive behavior
Human TRPA1
  inhibitory activity against human TRPA1: showed inhibitory activity
